Source: patent US20050048508A1, “Trehalose receptor and method for detecting trehalose with the same” (KABUSHIKI KAISHA HAYASHIBARA SEIBUTSU KAGAKU KENKYUJO, priority 2002, published 2005)

Molecular target: T1, T1R1 and T1R3 with G protein α-subunits (α15 and α16/Z chimeric protein) (Mus musculus, UniProt Q925D8+Q99PG6, I706N)
T1 construct: expressed in transfected cells; host or cells: 293 cells, RCB 1637 (human embryonic kidney)
T1 sequence (Q99PG6 20-842 L120P/N244D/D281A/N309Y/P311T/S314P/H418Y): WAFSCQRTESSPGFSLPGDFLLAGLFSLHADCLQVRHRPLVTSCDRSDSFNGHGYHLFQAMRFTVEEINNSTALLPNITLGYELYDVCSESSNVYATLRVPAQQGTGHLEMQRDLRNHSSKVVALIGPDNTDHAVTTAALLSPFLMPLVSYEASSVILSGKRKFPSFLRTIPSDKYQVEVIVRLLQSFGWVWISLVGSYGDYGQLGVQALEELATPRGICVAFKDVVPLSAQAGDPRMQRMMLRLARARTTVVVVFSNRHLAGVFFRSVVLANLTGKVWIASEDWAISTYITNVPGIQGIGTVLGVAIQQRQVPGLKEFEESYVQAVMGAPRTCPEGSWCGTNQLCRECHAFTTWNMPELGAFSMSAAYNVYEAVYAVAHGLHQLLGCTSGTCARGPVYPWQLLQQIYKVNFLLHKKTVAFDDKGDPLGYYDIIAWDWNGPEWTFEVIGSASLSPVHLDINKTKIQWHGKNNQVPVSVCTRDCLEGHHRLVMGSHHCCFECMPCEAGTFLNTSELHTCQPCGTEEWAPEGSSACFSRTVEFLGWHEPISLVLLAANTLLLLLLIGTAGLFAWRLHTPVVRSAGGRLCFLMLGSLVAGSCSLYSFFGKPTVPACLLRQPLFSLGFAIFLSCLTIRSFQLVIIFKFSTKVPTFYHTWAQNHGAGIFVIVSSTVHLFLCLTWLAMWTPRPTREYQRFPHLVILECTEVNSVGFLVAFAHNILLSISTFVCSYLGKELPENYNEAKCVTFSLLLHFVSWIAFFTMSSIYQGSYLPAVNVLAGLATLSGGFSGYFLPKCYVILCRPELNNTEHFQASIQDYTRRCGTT
T1 sequence (Q925D8 21-858 I706N): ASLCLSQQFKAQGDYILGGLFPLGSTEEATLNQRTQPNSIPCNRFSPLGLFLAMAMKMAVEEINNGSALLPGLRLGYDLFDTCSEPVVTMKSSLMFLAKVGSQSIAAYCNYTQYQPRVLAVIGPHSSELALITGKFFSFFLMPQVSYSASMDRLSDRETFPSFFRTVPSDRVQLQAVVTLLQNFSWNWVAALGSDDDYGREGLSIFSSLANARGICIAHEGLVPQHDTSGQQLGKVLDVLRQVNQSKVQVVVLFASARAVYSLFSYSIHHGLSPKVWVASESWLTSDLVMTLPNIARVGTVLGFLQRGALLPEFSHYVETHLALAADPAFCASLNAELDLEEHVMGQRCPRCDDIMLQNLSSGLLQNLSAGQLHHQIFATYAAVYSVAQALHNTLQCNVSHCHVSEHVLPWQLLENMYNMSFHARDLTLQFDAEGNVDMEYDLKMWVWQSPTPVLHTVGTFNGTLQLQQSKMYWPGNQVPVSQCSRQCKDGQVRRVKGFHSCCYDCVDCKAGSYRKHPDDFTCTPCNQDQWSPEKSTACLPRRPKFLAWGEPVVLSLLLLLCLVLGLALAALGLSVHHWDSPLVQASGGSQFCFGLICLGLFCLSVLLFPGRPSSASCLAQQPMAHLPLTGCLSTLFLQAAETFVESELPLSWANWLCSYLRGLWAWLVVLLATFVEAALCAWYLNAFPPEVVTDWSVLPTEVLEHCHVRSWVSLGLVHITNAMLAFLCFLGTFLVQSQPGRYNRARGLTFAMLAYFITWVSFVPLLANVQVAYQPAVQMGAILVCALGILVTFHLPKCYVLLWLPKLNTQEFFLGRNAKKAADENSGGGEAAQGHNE
Assay: Intracellular calcium ion assay, 293 cells coexpressing G protein α-subunits, T1R1 and T1R3
Format: cell-based
Conditions: 293 cells: T1R1 + T1R3 + G protein α-subunits; 0.67 ml of 1 M saccharide solution added to 2 ml cell suspension; FLUO-4 AM
Description: The coexpression vector for the G protein α-subunit α15 and the G protein α16/Z chimeric protein (hereinafter designated as “G protein α-subunits”) obtained in Example 1-3 was gene transferred to 293 cells, RCB 1637, a human embryonic kidney cell line, available from the Riken Bioresource Center, Ibaraki, Japan, by conventional lipofection. The gene transferred cells were suspended in Dulbecco's Modified Eagle's Medium (D-MEM) supplemented with 1 mg/L of “PUROMYCIN”, a trade mane of puromycin commercialized by Edge Biosystems, MD, USA, and 10% (v/v) of fetal calf serum to give a cell density of 2×10^6 cells/ml and cultured in a plastic petri dish for cell culture. […]
The captioned reactivity test was conducted according to a conventional intracellular calcium ion assay: 293 Cells prepared in Example 3, capable of coexpressing the G protein α-subunits and the sweet taste receptor(s), were cultured in a plastic petri dish for cell culture until reaching its confluent phase. […] Two milliliters of the resultant cell suspension was injected into a glass cuvette, commercialized by Hitachi, Ltd., Tokyo, Japan, and analyzed on “HITACHI 650-40”, a fluorescence spectrophotometer commercialized by Hitachi, Ltd., Tokyo, Japan. […]

SMILES	Influx of calcium ion
OC[C@H]1O[C@H](O[C@H]2O[C@H](CO)[C@@H](O)[C@H](O)[C@H]2O)[C@H](O)[C@@H](O)[C@@H]1O [Trehalose]	Positive
OC[C@H]1O[C@@](CO)(O[C@H]2O[C@H](CO)[C@@H](O)[C@H](O)[C@H]2O)[C@@H](O)[C@@H]1O [Sucrose, reference compound]	Negative
